The numbers were not newly measured in patent publication US20100284985A1, “Composition” (Danisco A/S, priority 2007, published 2010), which cites them from elsewhere.

In the data set the test system is common food spoilage yeasts and moulds. As to conditions: most strains of common food spoilage yeasts and moulds; cited from earlier work.

Molecules are shown by their SMILES.

For `C[C@@H]1C/C=C/C=C/C=C/C=C/[C@H](O[C@@H]2O[C@H](C)[C@@H](O)[C@H](N)[C@@H]2O)C[C@@H]2O[C@](O)(C[C@@H](O)C[C@H]3O[C@@H]3/C=C/C(=O)O1)C[C@H](O)[C@H]2C(=O)O` [natamycin], the “concentrations inhibiting most strains” value was 1-15 ppm.
